Results as given in patent publication US10774083B2, “Heterocyclic amide compound” (TAKEDA PHARMACEUTICAL COMPANY LIMITED, priority 2016, dated 2020).

Experiments:
[1] = target: T1, human PRS protein (His-Avi-hEPRS (998-1512)) (Homo sapiens, UniProt P07814); test: PRS inhibitory activity ([32P]pyrophosphate exchange enzyme assay); type: biochemical; details: 300 nM test compound; for inhibition at 0.3 µM: read-out: inhibitory rate (%) of PRS
T1 construct: to construct His-Avi-hEPRS (998-1512) expression plasmid; His tag (N); Avi tag (N); TEV cleavage site (ENLYFQG, then S; inferred from the forward primer hEPRS-TEV-NheF) (N); made in house; host or cells: E. coli BL21(DE3)
T1 sequence (P07814 998-1512 limits assumed): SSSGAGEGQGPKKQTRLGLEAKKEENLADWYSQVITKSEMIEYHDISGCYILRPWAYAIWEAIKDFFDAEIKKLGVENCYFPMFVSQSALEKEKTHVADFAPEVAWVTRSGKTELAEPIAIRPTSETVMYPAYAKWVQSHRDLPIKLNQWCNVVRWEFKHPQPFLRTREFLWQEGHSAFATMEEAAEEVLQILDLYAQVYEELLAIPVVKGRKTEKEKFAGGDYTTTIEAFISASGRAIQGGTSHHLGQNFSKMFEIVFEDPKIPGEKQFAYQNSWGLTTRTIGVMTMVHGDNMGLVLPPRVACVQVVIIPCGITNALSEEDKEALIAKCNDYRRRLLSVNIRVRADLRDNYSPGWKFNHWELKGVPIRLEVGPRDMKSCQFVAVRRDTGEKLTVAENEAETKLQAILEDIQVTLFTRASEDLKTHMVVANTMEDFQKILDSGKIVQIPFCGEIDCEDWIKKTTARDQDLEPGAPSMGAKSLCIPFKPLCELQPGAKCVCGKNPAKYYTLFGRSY
Protocol: The PRS inhibitory activity of the compounds of the present invention was evaluated by the following method.
An expression plasmid of Catalytic Domain of human EPRS was obtained by PCR using human skeletal muscle cDNA Library (Takara Bio Inc.) as a template and 2 kinds of Primers 5′-[…]-3′ (hEPRS-TEV-NheF) (SEQ ID NO: 1) and 5′-[…]-3′ (hEPRS-St-Not-R) (SEQ ID NO: 2). PCR was performed using PrimeStar GXL DNA Polymerase (Takara Bio Inc.) and included (1) 98° C., 1 min, (2) 35 cycles of 98° C., 10 sec, 65° C., 10 sec, 72° C., 1 min, and (3) reaction at 72° C., 1 min. This was cleaved with Nhe I and Not I (Takara Bio Inc.) and inserted using Ligation High (TOYOBO CO., LTD.) into the Nhe I/Not I site of pET21a (Novagen) with His-Avitag inserted thereinto. This was introduced into ECOS JM109 (NIPPON GENE CO., LTD.) to construct His-Avi-hEPRS (998-1512) expression plasmid.
Recombinant human PRS protein was prepared by transforming the His-Avi-hEPRS (998-1512) expression plasmid prepared above into ECOS Competent E. coli BL21(DE3) (NIPPON GENE CO., LTD.). Escherichia coli obtained by transformation was inoculated into 300 mL of LB medium (1% peptone, 0.5% yeast extract, 0.5% sodium chloride, 0.01% ampicillin) and cultured at 30° C. for 16 hr. The obtained culture medium was transferred into a jar culture tank charged with 6 L of the main fermentation medium (0.3% potassium dihydrogen phosphate, 0.6% disodium hydrogen phosphate, 0.1% ammonium chloride, 0.05% sodium chloride, 0.024% magnesium sulfate, 0.02% NEWPOL LB-625, 1.5% sorbitol, 1.5% casamino acid, 0.5% yeast extract, 0.01% ampicillin) and culturing was started at 37° C., quantity of airflow 5 L/min, stirring rotating speed 400 rpm. At the time point when the turbidity of the culture medium reached about 550 Klett units, the culture temperature was lowered to 16° C., isopropyl-β-D-thiogalactopyranoside (IPTG) was added to the final concentration 0.1 mM, and culturing was performed for another 16 hr to induce expression of human PRS. After completion of culturing, the culture medium was centrifuged at 5,000 rpm for 10 min. The obtained human PRS expressing Escherichia coli was suspended in a buffer containing 50 mM Tris-HCl (pH 8.0), 150 mM NaCl, 1 mM DTT, 5 U/ml Benzonase, 20 mM Imidazole and sonicated using Sonifier (BRANSON). The homogenate was centrifuged (33,000×G, 60 min, Beckman Coulter), the obtained supernatant was subjected to adsorption by passage through Ni-NTA Superflow (QIAGEN) column equilibrated in advance with 50 mM Tris-HCl (pH 8.0), 300 mM NaCl, 1 mM DTT, and elution was performed with a buffer containing 50 mM Tris-HCl (pH 8.0), 300 mM NaCl, 1 mM DTT, 250 mM Imidazole. Furthermore, gel filtration was performed using Superdex200 pg column equilibrated in advance with a buffer containing 50 mM Tris-HCl (pH 8.0), 150 mM NaCl, 1 mM DTT, 10% glycerol to give purified human PRS protein. The protein concentration was measured using BCA Protein Assay Kit (PIERCE) and BSA as the standard.
A test compound was dissolved in 5 μL of an assay buffer (50 mM Tris-HCl (pH 7.5), 20 mM KCl, 1 mM DTT, 0.01% Tween 20) and incubated for 60 min with 5 μL of 40 nM human PRS protein dissolved in the assay buffer containing 40 mM MgCl2. An enzyme reaction of the human PRS protein was started by adding 10 μL of a substrate solution containing 300 μM ATP, 160 μM L-Proline, 400 μM pyrophosphate, [^32P]pyrophosphate (PerkinElmer) prepared to 1 MBq/mL. After incubation at room temperature for 30 min, the reaction was discontinued by adding 50 μL of discontinuation/washing solution (1M HCl, 200 mM sodium pyrophosphate) to the reaction mixture. The reaction solution was transferred to a filter plate (Merck Millipore, Billerica, Mass.) previously added with 200 μL of charcoal solution (0.5% HCl solution containing 10% charcoal (w/v)). […]

[2] = test system: human ovarian cancer cells A2780; test: proliferation inhibitory activity against human ovarian cancer cell A2780 (CellTiter-Glo); type: cell-based; details: A2780, 72 h, 1 μM test compound, 3 days of culture, read-out: proliferation inhibitory rate (%) of A2780 cells
Protocol: The proliferation inhibitory activity of the compound of the present invention against human ovarian cancer cell A2780 was evaluated by the following method.
Human ovarian cancer cells A2780 were seeded in a 384 well culture plate at 1000 cells in 30 μL of medium per well by using RPMI-1640 medium (Wako Pure Chemical Industries, Ltd.) containing 10% fetal bovine serum and penicillin/streptomycin. The next day, 10 μL of RPMI-1640 medium containing the test compound was added to the cells. After 3 days of culture, 20 μL of CellTiter-Glo Luminescent Cell Viability Assay solution (Promega) was added. The luminescence signal was measured using EnVision (PerkinElmer) and the inhibitory rate (%) of the test compound was calculated with a well free of seeding of cell as 100% inhibition.

Row | inhibition at 0.3 µM [1] [%] | inhibitory rate (%) of PRS ([1]; 0.3 µM) [%] | Compound | inhibition at 1 µM [2] [%]
1 | 101 |  | Cn1cc(-c2cc(F)cc(CNC(=O)c3nccc4nc(C5CCCC5)n(C)c34)c2)nn1 [Example 91, 2-cyclopentyl-N-(3-fluoro-5-(1-methyl-1H-1,2,3-triazol-4-yl)benzyl)-3-methyl-3H-imidazo[4,5-c]pyridine-4-carboxamide] | 98
2 | 100 |  | Cc1cc(N2CCC3(CC3)C2=O)cc(C(=O)NCc2cc(F)cc(-c3cnn(C)c3)c2)n1 [Example 233, N-(3-fluoro-5-(1-methyl-1H-pyrazol-4-yl)benzyl)-6-methyl-4-(4-oxo-5-azaspiro[2.4]hept-5-yl)pyridine-2-carboxamide] | 70
3 | 102 |  | Cn1cc(-c2cc(F)c(F)c(CNC(=O)c3ncnc4nc(C5CCCC5)n(C)c34)c2)cn1 [Example 5, 8-cyclopentyl-N-(2,3-difluoro-5-(1-methyl-1H-pyrazol-4-yl)benzyl)-7-methyl-7H-purine-6-carboxamide] | 98
4 | 100 |  | Cc1cc(-c2cc(F)cc(CNC(=O)c3cc(N4CC[C@@](C#N)(C5CC5)C4=O)cc(C)n3)c2)ccn1 [Example 209, 4-((3S)-3-cyano-3-cyclopropyl-2-oxopyrrolidin-1-yl)-N-(3-fluoro-5-(2-methylpyridin-4-yl)benzyl)-6-methylpyridine-2-carboxamide] | 80
5 | 99 |  | Cc1cc(N2CC[C@@](C#N)(C3CC3)C2=O)cc(C(=O)NCc2cc(F)cc(-c3cnc(C)s3)c2)n1 [Example 187, 4-((3S)-3-cyano-3-cyclopropyl-2-oxopyrrolidin-1-yl)-N-(3-fluoro-5-(2-methyl-1,3-thiazol-5-yl)benzyl)-6-methylpyridine-2-carboxamide] | 65
6 | 69 |  | Cc1cc(N2CCC(CO)(C3CC3)C2=O)cc(C(=O)NCc2cc(F)cc(-c3cnn(C)c3)c2)n1 (stereo not shown) [Example 235, 4-(3-cyclopropyl-3-(hydroxymethyl)-2-oxopyrrolidin-1-yl)-N-(3-fluoro-5-(1-methyl-1H-pyrazol-4-yl)benzyl)-6-methylpyridine-2-carboxamide] | 
7 | 78 |  | Cn1cc(-c2ccnc(CNC(=O)c3nccc4nc(C5CCCC5)n(C)c34)n2)cn1 [Example 146, 2-cyclopentyl-3-methyl-N-((4-(1-methyl-1H-pyrazol-4-yl)pyrimidin-2-yl)methyl)-3H-imidazo[4,5-c]pyridine-4-carboxamide] | 
8 | 91 |  | Cc1cc(N2CCN(C(C)C)C2=O)cc(C(=O)NCc2cc(F)cc(-c3cnn(C)c3)c2)n1 [Example 226, N-(3-fluoro-5-(1-methyl-1H-pyrazol-4-yl)benzyl)-4-(3-isopropyl-2-oxoimidazolidin-1-yl)-6-methylpyridine-2-carboxamide] | 
9 | 93 |  | Cc1cc(N2OCC(C)(C)C2=O)cc(C(=O)NCc2cc(F)cc(-c3cnn(C)c3)c2)n1 [Example 179, 4-(4,4-dimethyl-3-oxo-1,2-oxazolidin-2-yl)-N-(3-fluoro-5-(1-methyl-1H-pyrazol-4-yl)benzyl)-6-methylpyridine-2-carboxamide] | 
10 |  | 101 | Cn1cc(-c2cc(F)cc(CNC(=O)c3ncnc4nc(C5COCCO5)[nH]c34)c2)cn1 (stereo not shown) [Example 34, 8-(1,4-dioxan-2-yl)-N-(3-fluoro-5-(1-methyl-1H-pyrazol-4-yl)benzyl)-7H-purine-6-carboxamide] | 
11 | 101 |  | Cn1cc(-c2cc(F)cc(CNC(=O)c3ncnc4nc(C5CCS(=O)(=O)C5)[nH]c34)c2)cn1 (stereo not shown) [Example 28, 8-(1,1-dioxidotetrahydrothiophen-3-yl)-N-(3-fluoro-5-(1-methyl-1H-pyrazol-4-yl)benzyl)-7H-purine-6-carboxamide] | 
12 | 95 |  | Cn1cc(-c2cc(F)cc(CNC(=O)c3cc(N4CC[C@@](C#N)(C5CC5)C4=O)ccn3)c2)cn1 [Example 149, 4-((3S)-3-cyano-3-cyclopropyl-2-oxopyrrolidin-1-yl)-N-(3-fluoro-5-(1-methyl-1H-pyrazol-4-yl)benzyl)pyridine-2-carboxamide] | 
13 | 79 |  | COc1c(F)cc(-c2cnn(C)c2)cc1CNC(=O)c1ncnc2nc(C3CCCC3)n(C)c12 [Example 6, 8-cyclopentyl-N-(3-fluoro-2-methoxy-5-(1-methyl-1H-pyrazol-4-yl)benzyl)-7-methyl-7H-purine-6-carboxamide] | 
14 | 86 |  | Cc1nc(C(=O)NCc2cc(F)cc(-c3cnn(C)c3)c2)c2[nH]c(C3CCCC3)nc2n1 [Example 13, 8-cyclopentyl-N-(3-fluoro-5-(1-methyl-1H-pyrazol-4-yl)benzyl)-2-methyl-7H-purine-6-carboxamide] | 
15 | 91 |  | Cn1ncc2c(CNC(=O)c3nccc4nc(C5CCCC5)[nH]c34)cccc21 [Example 93, 2-cyclopentyl-N-((1-methyl-1H-indazol-4-yl)methyl)-3H-imidazo[4,5-c]pyridine-4-carboxamide] | 
16 | 74 |  | COc1cc(N2CC[C@@](C#N)(C3CC3)C2=O)cc(C(=O)NCc2cc(F)cc(-c3cnn(C)c3)c2)n1 [Example 224, 4-((3S)-3-cyano-3-cyclopropyl-2-oxopyrrolidin-1-yl)-N-(3-fluoro-5-(1-methyl-1H-pyrazol-4-yl)benzyl)-6-methoxypyridine-2-carboxamide] | 
17 | 87 |  | Cn1cc(-c2cc(F)cc(CNC(=O)c3cc(N4CC[C@@](C#N)(C5CC5)C4=O)ccn3)c2)ccc1=O [Example 150, 4-((3S)-3-cyano-3-cyclopropyl-2-oxopyrrolidin-1-yl)-N-(3-fluoro-5-(1-methyl-6-oxo-1,6-dihydropyridin-3-yl)benzyl)pyridine-2-carboxamide] | 
